Source: patent US20220323406A1, “METHODS AND COMPOSITIONS FOR DIFFERENTIATING STEM CELLS” (Massachusetts Institute of Technology, priority 2019, published 2022)
Where a name gives a salt, the structure may show the parent alone.

What was measured:
[1] = test system: ENR+CD organoids (ISC to Paneth cell differentiation); test: Primary screen: basal (non-stimulated) lysozyme secretion LYZ.NS, 2.5-D 384-well ENR+CD organoid differentiation; format: cell-based, mouse
Excerpt: (§1) High-throughput screening.

[2] = test system: ENR+CD organoids (ISC to Paneth cell differentiation); test: Primary screen: CCh-stimulated lysozyme secretion LYZ.S, 2.5-D 384-well ENR+CD organoid differentiation; format: cell-based, mouse; conditions: primary screen
Excerpt: as §1

[3] = test system: ENR+CD organoids; test: Primary screen: ATP (CellTiter-Glo 3D, CTG) cell number/viability, 2.5-D 384-well ENR+CD organoids; conditions: primary screen; for Z.CTG: standard z score;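 as to all read-outs here: compounds given at plating and again on day 3 over a 6-day differentiation from ENR+CV stem-cell-enriched precursors, ATP measured on day 6, plate median as control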
[4] = primary screen, standard z score, dose 0.08 uM
[5] = primary screen, standard z score, dose 0.40 uM
[6] = primary screen, standard z score, dose 2.00 uM
[7] = primary screen, standard z score, dose 10.00 uM
[8] = dose 0.08 uM, FC relative to plate median
[9] = dose 0.40 uM, FC relative to plate median
[10] = dose 2.00 uM, FC relative to plate median
[11] = dose 10.00 uM, FC relative to plate median

Row | SMILES | Dose.FC.LYZ.NS ([1]; primary screen, dose 0.08 uM) [log2 fold change] | Dose.FC.LYZ.NS ([1]; primary screen, dose 0.40 uM) [log2 fold change] | Z.LYZ.NS (standard z score) ([1]; primary screen, dose 0.40 uM) | Dose.FC.LYZ.NS ([1]; primary screen, dose 2.00 uM) [log2 fold change] | Z.LYZ.NS (standard z score) ([1]; primary screen, dose 2.00 uM) | Dose.FC.LYZ.NS ([1]; primary screen, dose 10.00 uM) [log2 fold change] | Z.LYZ.NS (standard z score) ([1]; primary screen, dose 10.00 uM) | Dose.FC.LYZ.S ([2]; dose 0.08 uM) [log2 fold change] | Dose.FC.LYZ.S ([2]; dose 0.40 uM) [log2 fold change] | Dose.FC.LYZ.S ([2]; dose 2.00 uM) [log2 fold change] | Dose.FC.LYZ.S ([2]; dose 10.00 uM) [log2 fold change] | Dose.FC.CTG ([3]; dose 0.08 uM) [log2 fold change] | Dose.FC.CTG ([3]; dose 0.40 uM) [log2 fold change] | Dose.FC.CTG ([3]; dose 2.00 uM) [log2 fold change] | Dose.FC.CTG ([3]; dose 10.00 uM) [log2 fold change] | Z.LYZ.NS [1, 4] | Z.LYZ.NS [1, 5] | Z.LYZ.NS [1, 6] | Z.LYZ.NS [1, 7] | Z.CTG ([3]; dose 0.08 uM) | further results
1 | CC(C)NCC(O)COc1ccc(COCCOC(C)C)cc1 (stereo not drawn) [Bisoprolol fumarate] | 0.085 | 0.075 | 0.649 | 0.075 | 0.656 | 0.003 | 0.027 | 0.086 | 0.129 | 0.074 | 0.015 | −0.104 | −0.057 | −0.020 | 0.058 |  |  |  |  |  | Z.LYZ.NS (standard z score) ([1]; primary screen, dose 0.08 uM): 0.739
2 | NC(=O)c1ccc(I)c([N+](=O)[O-])c1 [Iniparib (BSI-201)] |  |  | 0.003 |  | 0.138 |  | −0.139 |  |  |  |  |  |  |  |  |  |  |  |  |  | Dose.FC.LYZ.NS (log2 fold change) ([1]; primary screen, dose 0.40 uM): 0.000; Dose.FC.LYZ.NS (log2 fold change) ([1]; primary screen, dose 2.00 uM): 0.016; Dose.FC.LYZ.NS (log2 fold change) ([1]; primary screen, dose 10.00 uM): −0.016; Dose.FC.LYZ.S (log2 fold change) ([2]; dose 0.40 uM): 0.035; Dose.FC.LYZ.S (log2 fold change) ([2]; dose 2.00 uM): −0.001; Dose.FC.LYZ.S (log2 fold change) ([2]; dose 10.00 uM): −0.010; Dose.FC.CTG (log2 fold change) ([3]; dose 0.40 uM): 0.181; Z.CTG (standard z score) ([3]; dose 0.40 uM): 0.432; Dose.FC.CTG (log2 fold change) ([3]; dose 2.00 uM): 0.157; Z.CTG (standard z score) ([3]; dose 2.00 uM): 0.375; Dose.FC.CTG (log2 fold change) ([3]; dose 10.00 uM): 0.244; Z.CTG (standard z score) ([3]; dose 10.00 uM): 0.583
3 | O=C(O)c1cc2cccc([N+](=O)[O-])c2[nH]1 [CRT0044876] | 0.016 | 0.034 |  | 0.047 |  | 0.032 |  | −0.002 | 0.055 | 0.014 | −0.061 | −0.171 | −0.040 | −0.081 | −0.099 | 0.135 | 0.298 | 0.408 | 0.278 | −0.410 | Z.CTG ([3]; dose 0.40 uM): −0.096; Z.CTG ([3]; dose 2.00 uM): −0.192; Z.CTG ([3]; dose 10.00 uM): −0.237
4 | CCCCCCCCc1ccc(CCC(N)(CO)CO)cc1.Cl [Fingolimod (FTY720) HCl] | −0.054 | 0.071 |  | 0.021 |  | −0.225 |  | −0.046 | 0.077 | −0.060 | −0.362 | −0.080 | 0.103 | −0.468 | −1.304 | −0.471 | 0.616 | 0.186 | −1.961 | −0.191 | Z.CTG ([3]; dose 0.40 uM): 0.245; Z.CTG ([3]; dose 2.00 uM): −1.119; Z.CTG ([3]; dose 10.00 uM): −3.116
5 | Cc1cc(OCCCS(C)(=O)=O)cc(C)c1-c1cccc(COc2ccc3c(c2)OC[C@H]3CC(=O)O)c1 [TAK-875] |  |  |  |  |  |  |  |  |  |  |  |  |  |  |  |  |  |  |  |  | Dose.FC.LYZ.NS ([1]; primary screen, dose 0.08 uM, FC relative to plate median): 0.096 log2 fold change; Z.LYZ.NS ([1]; primary screen, dose 0.08 uM, standard z score): 0.839; Dose.FC.LYZ.NS ([1]; primary screen, dose 0.40 uM, FC relative to plate median): 0.023 log2 fold change; Z.LYZ.NS ([1]; primary screen, dose 0.40 uM, standard z score): 0.199; Dose.FC.LYZ.NS ([1]; primary screen, dose 2.00 uM, FC relative to plate median): −0.043 log2 fold change; Z.LYZ.NS ([1]; primary screen, dose 2.00 uM, standard z score): −0.378; Dose.FC.LYZ.NS ([1]; primary screen, dose 10.00 uM, FC relative to plate median): −0.138 log2 fold change; Z.LYZ.NS ([1]; primary screen, dose 10.00 uM, standard z score): −1.199; Dose.FC.LYZ.S [2, 8]: 0.212 log2 fold change; Dose.FC.LYZ.S [2, 9]: 0.014 log2 fold change; Dose.FC.LYZ.S [2, 10]: −0.031 log2 fold change; Dose.FC.LYZ.S [2, 11]: −0.060 log2 fold change; Dose.FC.CTG [3, 8]: 0.239 log2 fold change; Dose.FC.CTG [3, 9]: −0.164 log2 fold change; Dose.FC.CTG [3, 10]: −0.157 log2 fold change; Dose.FC.CTG [3, 11]: −0.291 log2 fold change
